Measurements published in patent US20260001910A1, “PEPTIDES AND USES THEREOF” (PreveCeutical Medical Inc., priority 2021, published 2026).

Legend:
recombinant MMP-2 = biological target: T1, recombinant MMP-2 (Homo sapiens, UniProt P08253); assay: MMP-2 Inhibitor Screening Assay Kit (colorimetric); type: biochemical; conditions: lower % = higher inhibitory activity
T1 construct: purchased ab139446
Experimental: MMP-2 is an important target for inhibitor screening due to its involvement in cancer growth, angiogenesis, and metastasis. The MMP-2 screening assay was carried out with a commercially available MMP-2 Inhibitor Screening Assay Kit (Colorimetric, Catalog: ab139446) based on the manufacturers protocol. This assay is based on quantification of recombinant MMP-2 activity using a colorimetric assay (MMP-2 degrades a chromogenic substrate). The assay provides NNGH (N-isobutyl-N-(4-methoxyphenylsulfonyl) glycyl hydroxamic acid), a small molecule inhibitor, as a positive control (NNGH). […] Each determination was run in duplicate.
Briefly, MMP Substrate and MMP Inhibitor were warmed to room temperature to thaw DMSO. MMP Inhibitor (NNGH), MMP-2 substrate and MMP-2 enzyme were diluted with assay buffer to required concentration. 20 μL of MMP-2 enzyme and MMP-2 inhibitor (peptides, Chlorotoxin and NNGH) was added, then 50 μL of assay buffer was added and the reaction mixture incubated at 37° C. for 1 h. After incubation, 10 μL of MMP Substrate was added to start reaction. The reactions were continuously read at 412 nm in a microplate reader. Data was recorded at 1 min. time intervals for 10 to 20 min. The data as was plotted as optical density (OD) versus time for each sample. The reaction velocity (V) was obtained in OD/min: determine the slope of a line fit to the linear portion of the data plot using an appropriate routine. Then using the equation above the inhibitor % activity remaining was calculated. The control was without inhibitor.

[1] = tested on: GBM cells (U251, U87 and 081024 cells); assay: Binding/internalization of biotinylated peptide, confocal fluorescence microscopy; type: cell-based, human; conditions: 0.5 mM labelled peptide
Experimental: FIG. 1 provides fluorescence staining of biotinylated peptide SEQ ID NO. 1 after 6 hours cell exposure (U251 cells and U87 cells) or 5 min cell exposure (081024 oncospheres). Upper right-hand panel: U251 cells, middle right-hand panel, U87 cells, lower right-hand panel, 081024 oncospheres. No peptide negative control (left side of each panel). […] Nuclei appear blue due to DAPI staining. Images were captured using a 100X objective and a Olympus FV3000 confocal microscope
To document binding and/or internalization of the peptides to the cells, biotinylated derivatives of the peptides were synthesised to allow detection by Cy3-conjugated avidin staining using confocal fluorescence microscopy.
U87 and U251 cells were seeded on 8-chamber polystyrene vessel tissue culture-treated glass slides (Falcon). After 24h, cells were incubated with biotinylated peptide (0.5 mM) containing serum free media for 5 min and 6 h. […] Cells were then rinsed and mounted on microscopic slides with DAPI-containing mounting medium for confocal fluorescence imaging analysis.
The ability of SEQ ID NO. 41 to bind and/or enter GBM cells was evaluated. In a first set of experiments, adherent GBM cells and non-adherent GBM cells were exposed to 0.5 mM labelled peptide for 6 h, processed and analysed by confocal immunofluorescence microscopy. […]

U251 cells = conditions: U251, 1 μM, 24h
Experimental: (§1) This assay, described in more detail below, is an in vitro surrogate for measurement of the in vivo invasion by tumour cells of their environment.
(§2) The cell invasion assay employs a simplified Boyden chamber-like design that consists of two chambers separated by a filter (an 8 μm polycarbonate (PC) membrane) coated with basement membrane or different extracellular matrix components. The cell suspension is placed in the top chamber and incubated in the presence of test media containing specific chemo-attractants in the bottom chamber. Cells migrate from the top chamber to the bottom of the filter by degrading the coating over the filter pores. Detection of cell invasion is quantified using Calcein AM. Cell dissociation/Calcein AM solution is placed in the bottom chamber to dissociate the migrating cells from the filter. Calcein AM is internalized by the cells, and intracellular-esterases cleave the aceto-methylester (AM) moiety.
(§3) The filter was coated with PathClear® growth factor reduced BME.
(§4) Cell invasion was determined using CultureCoat® 96 Well Medium BME Cell Invasion assay. Briefly, the cells were pre-starved 24h before harvest. Then seeding 25,000 per well of cell in the upper chamber with serum free medium together different concentration of peptide. […] After 24h incubation, the invading cells were measured by Calcein AM and calculated based on standard curve.

081024 oncospheres = conditions: 081024, 1 μM, 24h
U87 cells = conditions: U87, 1 μM, 24h
Experimental: as §1, §2, §3, §4

T1 sequence (P08253 110-446 limits assumed): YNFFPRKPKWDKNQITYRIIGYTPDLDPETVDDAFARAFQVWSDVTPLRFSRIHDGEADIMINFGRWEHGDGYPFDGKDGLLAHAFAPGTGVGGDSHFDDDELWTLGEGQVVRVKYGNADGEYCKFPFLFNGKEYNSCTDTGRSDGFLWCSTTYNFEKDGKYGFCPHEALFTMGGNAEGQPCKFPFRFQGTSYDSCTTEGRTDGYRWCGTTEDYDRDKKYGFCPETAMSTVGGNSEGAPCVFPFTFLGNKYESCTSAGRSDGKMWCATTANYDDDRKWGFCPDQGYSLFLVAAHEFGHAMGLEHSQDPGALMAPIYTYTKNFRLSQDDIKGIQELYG

COc1ccc(S(=O)(=O)N(CC(=O)NO)CC(C)C)cc1 [NNGH, N-isobutyl-N-(4-methoxyphenylsulfonyl) glycyl hydroxamic acid, reference compound]
% inhibition (MMP-2 inhibitor screening) (recombinant MMP-2; 1.3 μM): 2.29%

Biotin-tyr-gly-gly-phe-leu-arg-arg [SEQ ID NO. 41]
binding/entry into GBM cells, Cy3 staining ([1]; 5 minutes exposure, U251, U87 and 081024 cells): already internalised
binding/entry into GBM cells, Cy3 staining ([1]; 6 h exposure): bright intracellular fluorescence

Chlorotoxin
Invasion Inhibition Index (%) (U251 cells): 28.50%
% inhibition (MMP-2 inhibitor screening) (recombinant MMP-2; 1 μM): 67.94%
Invasion Inhibition Index (%) (081024 oncospheres): 45.0%
Invasion Inhibition Index (%) (U87 cells): 39.5%
